Source: patent US20060100255A1, “Substituted indolealkanoic acids derivative and formulations containing same for use in the treatment of diabetic complications” (priority 2002, published 2006)

Key:
NCV = experiment: comparison with zenarestat and zopolrestat, inhibition of decline in NCV; type: in vivo
Source text: 3-[(4,5,7-trifluoro-1,3-benzothiazol-2-yl)methyl]-1H-indol-1-yl}acetic acid monohydrate compares very favorably with the ability of zenarestat and zopolrestat to inhibit the decline in NCV. […]

[1] = test system: nerve conduction velocity (NCV) in the sciatic nerve; experiment: 3 month study in STZ-diabetic rats, nerve conduction velocity; type: in vivo, rat; conditions: 3 months treatment
[2] = test system: sorbitol levels in the sciatic nerve and lens; experiment: 8-day STZ diabetic rat model, sorbitol lowering versus known ARIs; type: in vivo; conditions: 10 mg/kg/day
Source text: 3-[(4,5,7-trifluoro-1,3-benzothiazol-2-yl)methyl]-1H-indol-1-yl}acetic acid monohydrate is compared to the known […] inhibitors (ARI) zenarestat and zopolrestat in an 8-day STZ diabetic rat model.

[3] = test system: sorbitol accumulation in the sciatic nerve; experiment: sorbitol accumulation in sciatic nerve of streptozotocin-induced diabetic rats, 15 day study; type: in vivo, rat
Source text: (§1) The test methods employed to determine the efficacy are essentially those of Mylari, et al., J. Med. Chem. 34: 108, 1991.

[4] = test system: nerve conduction velocity (NCV) in the sciatic nerve; experiment: 4-week study in STZ-diabetic rats, loss of nerve conduction velocity; type: in vivo, rat
Tissue Sorbitol Levels = experiment: tissue sorbitol levels in the STZ induced diabetic rat, 30 and 90 day studies; type: in vivo
Source text: as §1
[(4,5,7-trifluoro-1,3-benzothiazol-2-yl)methyl]-1H-indol-1-yl}acetic acid monohydrate in reducing Tissue Sorbitol Levels in the STZ Induced Diabetic Rat

With O=C(O)Cn1cc(Cc2nc3c(F)c(F)cc(F)c3s2)c2ccccc21 [Example 1, 3-(4,5,7-Trifluorobenzothiazol-2-yl)methyl-indole-N-acetic Acid, monohydrate] the “Improvement in NCV” value (NCV; 25 mg/kg/day, study 4 weeks, treatment 3 weeks) was 79%, the “Improvement in NCV” value ([1]; 5 mg/kg/day) was 50% and the “Improvement in NCV” value ([1]; 10 mg/kg/day) was 68%. For the same compound, the “Improvement in NCV” value ([1]; 25 mg/kg/day) was 105%, the Lens sorbitol lowering [2] was 25-42% and the “Sciatic Nerve sorbitol lowering” value [2] was 100%. For the same compound, the “ED50, sorbitol accumulation in rat sciatic nerve” value ([3]; 15 day study) was 1.3 mg/kg/day, the “inhibition of sorbitol accumulation, rat sciatic nerve” value ([3]; 15 day study, 4.8 mg/kg/day) was 100% and the changes in fructose ([3]; STZ diabetic rat tissues) was “levels were reduced”. The changes in mysinositol ([3]; STZ diabetic rat tissues) was “levels were increased”, the “inhibition of decline of nerve conduction velocity (NCV) in the sciatic nerve” value (shortened to “inhibition of decline … in the sciatic nerve”) ([4]; 5 mg/kg/day) was 14% and the “inhibition of decline … in the sciatic nerve” value ([4]; 10 mg/kg/day) was 41%. For the same compound, the “inhibition of decline … in the sciatic nerve” value ([4]; 25 mg/kg/day) was 79%, the “% Sorbitol Reduction, Lens” value (Tissue Sorbitol Levels; 30 days, 5 mg/kg/day) was 88% and the “% Sorbitol Reduction, Sciatic Nerve” value (Tissue Sorbitol Levels; 30 days, 5 mg/kg/day) was 100%. The “% Sorbitol Reduction, Lens” value (Tissue Sorbitol Levels; 30 days, 10 mg/kg/day) was 90%, the “% Sorbitol Reduction, Sciatic Nerve” value (Tissue Sorbitol Levels; 30 days, 10 mg/kg/day) was 100% and the “% Sorbitol Reduction, Lens” value (Tissue Sorbitol Levels; 30 days, 25 mg/kg/day) was 95%. For the same compound, the “% Sorbitol Reduction, Sciatic Nerve” value (Tissue Sorbitol Levels; 30 days, 25 mg/kg/day) was 100%, the “% Sorbitol Reduction, Kidney Cortex” value (Tissue Sorbitol Levels; 90 days, 5 mg/kg/day) was 33% and the “% Sorbitol Reduction, Kidney Medulla” value (Tissue Sorbitol Levels; 90 days, 5 mg/kg/day) was 36%. For the same compound, the “% Sorbitol Reduction, Retina” value (Tissue Sorbitol Levels; 90 days, 5 mg/kg/day) was 89%, the “% Sorbitol Reduction, Sciatic Nerve” value (Tissue Sorbitol Levels; 90 days, 5 mg/kg/day) was 100% and the “% Sorbitol Reduction, Kidney Cortex” value (Tissue Sorbitol Levels; 90 days, 10 mg/kg/day) was 25%. The “% Sorbitol Reduction, Kidney Medulla” value (Tissue Sorbitol Levels; 90 days, 10 mg/kg/day) was 47%, the “% Sorbitol Reduction, Retina” value (Tissue Sorbitol Levels; 90 days, 10 mg/kg/day) was 99% and the “% Sorbitol Reduction, Sciatic Nerve” value (Tissue Sorbitol Levels; 90 days, 10 mg/kg/day) was 100%. The “% Sorbitol Reduction, Kidney Cortex” value (Tissue Sorbitol Levels; 90 days, 25 mg/kg/day) was 45%, the “% Sorbitol Reduction, Kidney Medulla” value (Tissue Sorbitol Levels; 90 days, 25 mg/kg/day) was 58% and the “% Sorbitol Reduction, Retina” value (Tissue Sorbitol Levels; 90 days, 25 mg/kg/day) was 96%. The “% Sorbitol Reduction, Sciatic Nerve” value (Tissue Sorbitol Levels; 90 days, 25 mg/kg/day) was 100%.

With O=C(O)Cn1c(=O)n(Cc2ccc(Br)cc2F)c(=O)c2ccc(Cl)cc21 [zenarestat] the “Improvement in NCV” value (NCV; 32 mg/kg/day, study 2 weeks, treatment 2 weeks) was 48%, the Lens sorbitol lowering [2] was 0% and the “Sciatic Nerve sorbitol lowering” value [2] was 52%.

For O=C(O)Cc1nn(Cc2nc3cc(C(F)(F)F)ccc3s2)c(=O)c2ccccc12 [zopolrestat], the “Improvement in NCV” value (NCV; 25 mg/kg/day, study 4 weeks, treatment 4 weeks) was 43%, the Lens sorbitol lowering [2] was 0% and the “Sciatic Nerve sorbitol lowering” value [2] was 71%.
